From patent US20260315434A1, “USE OF GUAIACOL SESQUITERPENE LACTONE DERIVATIVES” (NANJING UNIVERSITY OF CHINESE MEDICINE, priority 2023, published 2026)

Assays:
[1] = system: serum TC and TG; assay: HFD-induced atherosclerosis, serum total cholesterol and triglyceride; type: in vivo, APOE−/− mice; set-up: Serum TC / Serum TG: unit not given here; details: for Serum TC / Serum TG: 8 weeks
Experimental: (§1) Experimental animals: C57BL and APOE^−/− mice, male, 8 weeks old, purchased from GemPharmatech LLC. Production license number: SCXK(Su)2023-0009. […] They were acclimated for 7 days before use in experiments.
(§2) Normal group (C57BL), model group (HFD/APOE^−/−), positive control drug VTX3232 (10 mg/kg) group, compound 103 (0.3, 1, 3, 10 and 30 mg/kg) group, with 6 mice per group. Oral administration was performed continuously for 8 weeks.
(§3) Allow blood to stand at room temperature for 2 hours, then centrifuge at 3000 rpm for 20 minutes. Aspirate the serum, aliquot it, and store at −70° C. for future use. After blood collection, euthanize mice by cervical dislocation. Open the abdominal cavity, remove heart and aorta. […] Store remaining tissues at −80° C. for future use.
(§4) Serum Total Cholesterol (TC) and Triglyceride (TG) Assay: For each sample, 10 μL of serum was used for […]. Samples were added sequentially strictly according to the kit instructions, incubated at 37° C., and measured for absorbance values using an enzyme-linked immunosorbent assay (ELISA) reader. The concentration levels of each indicator were calculated based on the standard curve.

[2] = system: inflammatory factors Il1b, Il6 and Hscrp in serum; assay: HFD-induced atherosclerosis, serum Il1b, Il6 and Hscrp; type: in vivo, APOE−/− mice; set-up: Serum Il1b / Serum Il6 / Serum Hscrp: unit not given here; details: for Serum Hscrp / Serum Il1b / Serum Il6: 8 weeks
Experimental: as §1, §2, §3
as §4, with “Il1, Il6” for “Cholesterol (TC)”, “Hscrp” for “Triglyceride (TG)”

[3] = target: farnesyltransferase (FTase); details: cited from earlier work
[4] = system: CCR2 mRNA; assay: Inhibition of CCR2 mRNA level in MDSCs; type: cell-based; details: Mus musculus, 2 h, read-out: Suppression Rate (inhibition of CCR2 mRNA levels)
Experimental: Under sterile conditions, the tibia was removed, both ends of the bone were cut, and bone marrow was repeatedly flushed into a 15 mL centrifuge tube using a 1 mL syringe filled with culture medium. Centrifuge at 1600 rpm for 5 min to collect bone marrow cells. […] Count cells and adjust density to 1×10^6 cells/mL in complete medium. Seed cells uniformly into 6-well plates at 2 mL per well. […] After incubation, collect cells into centrifuge tubes, centrifuge at 1600 rpm for 5 min, wash once with 1×PBS, and add 500 μL RNA extraction reagent to each tube. After centrifugation to obtain the pellet, add 20 μL DEPC-treated water to each tube to dissolve the pellet. Determine RNA concentration and reverse transcribe to cDNA. Add the cDNA, primers, and […] to a 96-well plate. Centrifuge at 4000 rpm for 5 min, then place in a PCR instrument for detection.

Compound: CC1=C2CC[C@@](C)(OC(=O)N3CCCC3)[C@@H]2[C@H]2OC(=O)[C@@H](CN3CCCC3)[C@@H]2CC1 [Compound 103]
- Serum TC ([1]; 0.3 mg/kg, oral): 18.86 ± 1.44
- Serum TG ([1]; 0.3 mg/kg, oral): 2.69 ± 0.86
- Serum TC ([1]; 1 mg/kg, oral): 18.71 ± 1.45
- Serum TG ([1]; 1 mg/kg, oral): 2.87 ± 0.42
- Serum TC ([1]; 3 mg/kg, oral): 17.44 ± 1.83
- Serum TG ([1]; 3 mg/kg, oral): 2.56 ± 0.93
- Serum TC ([1]; 10 mg/kg, oral): 17.75 ± 1.62
- Serum TG ([1]; 10 mg/kg, oral): 3.01 ± 0.89
- Serum TC ([1]; 30 mg/kg oral): 17.65 ± 1.35
- Serum TG ([1]; 30 mg/kg oral): 2.91 ± 0.59
- serum TC and TG levels compared with the model group ([1]; 0.3, 1, 3, 10, 30 mg/kg oral): no significant changes
- Serum Hscrp ([2]; 0.3 mg/kg, oral): 9.67 ± 1.25
- Serum Il1b ([2]; 0.3 mg/kg, oral): 277.35 ± 176.70
- Serum Il6 ([2]; 0.3 mg/kg, oral): 95.42 ± 26.76
- Serum Hscrp ([2]; 1 mg/kg, oral): 7.25 ± 0.77
- Serum Il1b ([2]; 1 mg/kg, oral): 255.38 ± 185.47
- Serum Il6 ([2]; 1 mg/kg, oral): 90.32 ± 8.01
- Serum Hscrp ([2]; 3 mg/kg, oral): 6.67 ± 0.46
- Serum Il1b ([2]; 3 mg/kg, oral): 173.42 ± 132.43
- Serum Il6 ([2]; 3 mg/kg, oral): 82.19 ± 4.83
- Serum Hscrp ([2]; 10 mg/kg, oral): 5.80 ± 0.41
- Serum Il1b ([2]; 10 mg/kg, oral): 77.91 ± 41.08
- Serum Il6 ([2]; 10 mg/kg, oral): 50.08 ± 9.76
- Serum Hscrp ([2]; 30 mg/kg oral): 4.88 ± 0.63
- Serum Il1b ([2]; 30 mg/kg oral): 62.93 ± 23.79
- Serum Il6 ([2]; 30 mg/kg oral): 34.82 ± 20.80
- serum Il1b, Il6 and Hscrp levels compared with the model group ([2]; 0.3, 1, 3, 10, 30 mg/kg oral): markedly lower

Compound: C=C1C(=O)O[C@@H]2[C@H]3C(C)=CC[C@@]34O[C@@]4(C)CC[C@@H]12 [Arg, Arglabin, reference compound]
- IC50 for inhibiting H-Ras protein farnesylation [3]: only at the micromolar level
- inhibition at 1 µM [4]: 22.3%
- inhibition at 10 µM [4]: 69.7%
